Measured values from the NIST ThermoML archive (doi:10.1021/je8009545).

Settings: Gas; for mass density: Gas pipette; for viscosity: Oscillating disk viscometry

COC [dimethyl ether]
Settings | mass density [kg/m3] | viscosity [mPa·s]
298.15 K, 101 kPa | 1.91 | 0.00922
298.15 K, 296 kPa | 6.081 | 0.00918
298.15 K, 475 kPa | 10.06 | 0.0091
323.15 K, 101 kPa | 1.652 | 0.00997
323.15 K, 295 kPa | 5.561 | 0.00996
323.15 K, 490 kPa | 9.31 | 0.00993
323.15 K, 736 kPa | 14.71 | 0.00995
323.15 K, 976 kPa | 22.53 | 0.00994
348.15 K, 101 kPa | 1.332 | 0.01081
348.15 K, 305 kPa | 5.17 | 0.01081
348.15 K, 551 kPa | 9.705 | 0.01082
348.15 K, 1006 kPa | 19.03 | 0.01085
348.15 K, 1561 kPa | 35.81 | 0.01094
348.15 K, 1850 kPa | 44.66 | 0.01106
373.15 K, 101 kPa | 1.235 | 0.01161
373.15 K, 305 kPa | 4.748 | 0.0116
373.15 K, 500 kPa | 7.787 | 0.01162
373.15 K, 1028 kPa | 16.71 | 0.01168
373.15 K, 1940 kPa | 35.33 | 0.01191
373.15 K, 2505 kPa | 51.25 | 0.01219
373.15 K, 2875 kPa | 67.49 | 0.01247
373.15 K, 3049 kPa | 74.07 | 0.01261
398.15 K, 101 kPa | 0.948 | 0.01234
398.15 K, 300 kPa | 4.392 | 0.01237
398.15 K, 531 kPa | 7.678 | 0.01239
398.15 K, 992 kPa | 15.1 | 0.01244
398.15 K, 2085 kPa | 34.47 | 0.01274
398.15 K, 2985 kPa | 54.66 | 0.01317
398.15 K, 3965 kPa | 87.68 | 0.0141
398.15 K, 4480 kPa | 112.3 | 0.01504
398.15 K, 4620 kPa | 122.4 | 0.01543
423.15 K, 101 kPa | 1.009 | 0.01332
423.15 K, 310 kPa | 4.289 | 0.01333
423.15 K, 505 kPa | 6.812 | 0.01335
423.15 K, 985 kPa | 13.75 | 0.01342
423.15 K, 2022 kPa | 30.21 | 0.0137
423.15 K, 3004 kPa | 48.47 | 0.01413
423.15 K, 4015 kPa | 71.3 | 0.01477
423.15 K, 4495 kPa | 86.57 | 0.01521
423.15 K, 4912 kPa | 99.15 | 0.01568
